Common to all, as to format: functional
What all share (conditions): dose 3-100 µM, time 26 hrs

The subject of test [1] is RAW264.7. As to the kind of experiment: Antiinflammatory activity in mouse RAW264.7 cells assessed as inhibition of LPS-induced IL-6 production at 3 to 100 uM preincubated for 2 hrs followed by LPS stimulation and measured after 24 hrs by ELISA. Background: ELISA stands for enzyme-linked immunosorbent assay.
The test system of test [2] is RAW264.7. As to the kind of experiment: Antiinflammatory activity in mouse RAW264.7 cells assessed as inhibition of LPS-induced TNFalpha production at 3 to 100 uM preincubated for 2 hrs followed by LPS stimulation and measured after 24 hrs by ELISA.
The subject of test [3] is RAW264.7. Description: Antiinflammatory activity in mouse RAW264.7 cells assessed as inhibition of LPS-induced NO production at 3 to 100 uM preincubated for 2 hrs followed by LPS stimulation and measured after 24 hrs by Griess method. (In general: Nitrite, measured by Griess reagent, commonly stands in for NO production.)

We go through one compound from ChEMBL document CHEMBL5233262, “Anti-inflammatory activity of naturally occuring diarylheptanoids - A review” (Bioorg Med Chem, 2021).

As for `COc1cc2ccc1Oc1cc(ccc1O)CC[C@H](O[C@@H]1O[C@H](CO)[C@@H](O)[C@H](O)[C@H]1O)CC(=O)CC2`, the “inhibition (INH)” value in the test on RAW264.7 [1] worked out at 29.2%; in the test on RAW264.7 [2], 44.1%; in the test on RAW264.7 [3] it was 32.7%.
